Results reported in ChEMBL document CHEMBL1201862, “PubChem BioAssay data set” (2004).
The source made the active and inactive calls. Rule as the data show it, for most assays here: actives have a measured EC50 and inactives only a lower limit.

Assays:
[1] = Luminescence Cell-Based Dose Confirmation HTS to Identify Inhibitors of Platelet Dense Granule Release. [Related pubchem assays: 1663 (Primary HTS), 1678 (Summary of Project)]; format: functional
[2] = molecular target: Luciferin 4-monooxygenase (Photinus pyralis, UniProt P08659); assay: firefly luciferase enzyme inhibitors, dose response, biochemical, luminescence (AID 1891)
Sequence of Luciferin 4-monooxygenase (P08659 whole entry): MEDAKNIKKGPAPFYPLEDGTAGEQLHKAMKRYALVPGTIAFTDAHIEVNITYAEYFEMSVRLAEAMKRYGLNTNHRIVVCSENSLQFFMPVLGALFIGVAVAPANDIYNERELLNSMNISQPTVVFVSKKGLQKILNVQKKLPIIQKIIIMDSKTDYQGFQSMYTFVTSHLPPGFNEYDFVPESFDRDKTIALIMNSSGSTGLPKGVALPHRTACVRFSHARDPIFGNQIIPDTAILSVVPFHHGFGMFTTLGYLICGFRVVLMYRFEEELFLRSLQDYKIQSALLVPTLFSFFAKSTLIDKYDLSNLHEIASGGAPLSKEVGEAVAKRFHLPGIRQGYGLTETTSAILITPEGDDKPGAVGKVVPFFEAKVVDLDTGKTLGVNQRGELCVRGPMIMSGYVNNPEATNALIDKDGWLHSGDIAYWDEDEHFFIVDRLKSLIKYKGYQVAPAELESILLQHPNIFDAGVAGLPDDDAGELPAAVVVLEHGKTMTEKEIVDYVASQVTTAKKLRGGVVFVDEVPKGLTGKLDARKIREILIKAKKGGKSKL

Cytochrome P450 2D6 = Cytochrome P450 2D6 (Homo sapiens, UniProt P10635);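 also: CYP2D6 member of a cytochrome P450 panel assay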
Sequence of Cytochrome P450 2D6 (P10635 whole entry): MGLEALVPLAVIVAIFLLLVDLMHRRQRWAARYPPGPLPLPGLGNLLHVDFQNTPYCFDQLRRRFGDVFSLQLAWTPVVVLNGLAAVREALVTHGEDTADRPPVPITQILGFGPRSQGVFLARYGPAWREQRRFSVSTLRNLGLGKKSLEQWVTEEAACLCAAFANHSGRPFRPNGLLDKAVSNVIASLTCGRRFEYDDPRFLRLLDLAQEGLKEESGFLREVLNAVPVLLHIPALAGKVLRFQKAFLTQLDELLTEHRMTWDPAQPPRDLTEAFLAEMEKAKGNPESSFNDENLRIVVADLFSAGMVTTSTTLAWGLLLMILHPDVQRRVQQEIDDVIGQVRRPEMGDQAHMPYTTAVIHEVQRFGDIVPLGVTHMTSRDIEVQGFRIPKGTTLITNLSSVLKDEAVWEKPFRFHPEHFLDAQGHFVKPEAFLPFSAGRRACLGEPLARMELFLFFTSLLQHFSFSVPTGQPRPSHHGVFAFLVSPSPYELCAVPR

Structure (SMILES) | EC50 [1] | EC50 [2] | AC50 (Cytochrome P450 2D6)
N#CC(c1ccc(Cl)cc1)N1CCOCC1 (configuration not stated) | > 112 µM (not active) | > 112 µM (not active) | –
O=C(Nc1nnc(-c2cccnc2)s1)c1cccs1 | > 112 µM (not active) | 22.6 µM (active) | –
COc1ccc(C(C)NC(=O)c2ccccc2Cl)cc1OC (configuration not stated) | > 112 µM (not active) | > 112 µM (not active) | –
O=C(COC(=O)c1[nH]nc2ccccc12)Nc1cccc(S(=O)(=O)N2CCOCC2)c1 | > 112 µM (not active) | – | –
O=C(c1ccc(S(=O)(=O)Nc2ccccc2)cc1)N1CCCCCCC1 | > 112 µM (not active) | > 112 µM (not active) | –
COc1ccc(-c2nc(CSCC(=O)N3CCN(c4cccc(C)c4)C(C)C3)c(C)o2)cc1OC (configuration not stated) | > 112 µM (not active) | > 112 µM (not active) | –
Cc1ccc(-c2c3c(nc4sc(C(N)=O)c(N)c24)CCC3)cc1 | > 112 µM (not active) | > 112 µM (not active) | 22.4 µM (inconclusive)
NC(=O)CSc1cn(Cc2cccc(F)c2)c2ccccc12 | > 112 µM (not active) | > 112 µM (not active) | –
Cc1ccc(C(=O)Nc2ccc(C)c(S(=O)(=O)N3CCOCC3)c2)c(C)c1 | > 112 µM (not active) | > 112 µM (not active) | –
C/C(=N/OC(=O)c1ccc(C)cc1)c1cccs1 | 5.14 µM (active) | 1.22 µM (active) | –
Brc1ccc(-c2nc(N/N=C/c3cccnc3)c3ccccc3n2)cc1 | 0.407 µM (active) | 0.248 µM (active) | –
